Test results: PubChem BioAssay (NCI)
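All cell lines were grown in 96-well plates and treated with compound for 48 hours. The concentration for full growth arrest is given as TGI.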

How the values were obtained:
Assay in all cases: inhibition of tumour cell growth, NCI panel, 48 h
A549 NSCLC = tested on: A549 NSCLC
OVCAR-4 ovarian = tested on: OVCAR-4 ovarian
CAKI-1 renal = tested on: CAKI-1 renal
MALME-3M melanoma = tested on: MALME-3M melanoma
SN12C renal = tested on: SN12C renal
NCI-H460 lung = tested on: NCI-H460 lung
HS 578T breast = tested on: HS 578T breast
UACC-62 melanoma = tested on: UACC-62 melanoma
BT-549 breast = tested on: BT-549 breast
SW-620 colon = tested on: SW-620 colon

Structure (SMILES)	TGI (A549 NSCLC) [µM]	TGI (OVCAR-4 ovarian) [µM]	TGI (CAKI-1 renal) [µM]	TGI (MALME-3M melanoma) [µM]	TGI (SN12C renal) [µM]	TGI (NCI-H460 lung) [µM]	TGI (HS 578T breast) [µM]	TGI (UACC-62 melanoma) [µM]	TGI (BT-549 breast) [µM]	TGI (SW-620 colon) [µM]
CCCCCC(=O)OC[n+]1ccc(-c2c(COC(=O)NC(C)C)c(COC(=O)NC(C)C)c3n2CCC3)cc1	> 100	> 100	> 100	> 100	> 100	> 100	> 100	> 100	> 100	> 100
O=Cc1ccc(Oc2c3ccccc3nc3ccccc23)cc1	49	16.3	22.3	30	11.1	33.8	7.91	2.74	37.4	
FC1(F)SC2CCCCCCCCCCC2C1(F)F (stereo unspecified)	> 100	> 100	> 100	59.6			> 100	> 100	> 100	
COc1ccc(-c2c3c(n(C4OC(COC(C)=O)C(OC(C)=O)C(OC(C)=O)C4OC(C)=O)c(=S)c2C#N)CCCC3)cc1 (stereo unspecified)	> 100	98.9	79.9	> 100	> 100	> 100		> 100		> 100
Cc1nc2c(ccc3[nH]c4ccccc4c32)s1	> 100	> 100	> 100	> 100	76.9	79.4	46.5	41.2	57.3	45.4
CCN(CC)C(=O)CCNC(C)Cc1c[nH]c2ccccc12 (stereo unspecified)	> 100	> 100	> 100	> 100	> 100	> 100	> 100	> 100		> 100
COc1ccc(C2=Nn3c(C)nnc3S/C2=C\c2ccc(-c3ccc([N+](=O)[O-])cc3)o2)cc1	66.7	> 100	29.1	86.3	33.6	39.5	> 100	28.3	19	
O=C(O)Cc1ccc(-n2nnc3c(=O)[nH][nH]c(=O)c32)cc1	> 100	> 100	> 100	> 100	> 100	> 100			> 100	
COc1ccc(/C=C2\NC(=S)N(CN3CCOCC3)C2=O)cc1	> 100	> 100		> 100	> 100		> 100	> 100		> 100
CCOC(=O)C1=CN(Cc2ccccc2)C2ON=C(c3ccc(Cl)cc3)C2C1 (stereo unspecified)	> 59.6	> 77.8	> 85.1	> 71.8	> 65.4	> 65	21.7	> 69.2	> 56.4	> 65.7
CCOC(=O)C(/C=N/C(N)=S)=C(/O)c1ccccc1	> 100	> 100	> 100		> 100	> 100		> 100	> 100	> 100
COC(=O)C1=C(C(=O)OC)C2CCC1CC2=O (stereo unspecified)	> 100	> 100	> 100	> 100	> 100	> 100		> 100	> 100	> 100
COc1ccccc1N1C(=O)/C(=C\c2ccccc2)SC1c1cc(OC)c(OC)c(OC)c1 (stereo unspecified)	> 100	> 100	> 100	> 100	87.9		> 100	> 100	> 100	
COc1ccc(C(CC(=O)c2ccc(O)cc2)C(C(=O)c2ccc(O)cc2)C(c2ccc(OC)cc2)C2C(=O)NC(=S)NC2=O)cc1 (stereo unspecified)	89.9	63.2			57	39.5	67.8	36.1	47.9	55.7
COC(=O)Cc1c(-c2c(CC(=O)OC)c3ccccc3n2C2OC(COC3OC(COC(C)=O)C(OC(C)=O)C(OC(C)=O)C3OC(C)=O)C(O)C(O)C2O)[nH]c2ccccc12 (stereo unspecified)	> 100		> 100		> 100	> 100		> 100	> 100	> 100
O=CN/C=C\c1cc(O)ccc1O	> 100	26.8	26.4	28.9	28.9	> 56.2		17.5		25.6
C[C@H](N)C(=O)Nc1ccc(-c2nc3ccccc3s2)cc1Cl	27.6		23.2	41.4	30	26.2	49.7	31.1	36	29.4
COC(=O)CCC(=O)c1ccc2c(c1)CC1(Cc3ccccc3C1)C2	> 100	> 100		> 100	> 100		> 100	> 100		
COc1ccc(/C=C/C(=O)N[C@@H]2C(=O)N3[C@@H]2SC(C)(C)[C@@H]3C(=O)O)cc1OC	> 100	> 100	> 100		> 100	> 100	> 100	> 100	> 100	> 100
CC(C)(C)OC(=O)/C=C/[C@@H](CCC(=O)/C=C/[C@H](/C=C\CCCC(=O)O)NC1(c2ccccc2)c2ccccc2-c2ccccc21)O[Si](C)(C)C(C)(C)C	37.2	53.9	67.8		32.4	34.7	77.9	29.6	33	81.6
COc1cc2oc(=O)cc(C)c2c(OC)c1OC	> 100	> 100		> 100	> 100		> 100	> 100		> 100
Cc1cn(C2CC(/[N+]([O-])=N\Nc3ccc([N+](=O)[O-])cc3)C(CO)O2)c(=O)[nH]c1=O (stereo unspecified)	> 100		> 100	> 100	> 100	> 100	> 100	> 100	> 100	> 100
CN(C)C=Nc1cccc2c1NSN2	> 100	> 100	> 100	> 100	> 100	> 100	> 100	> 100		> 100
Cc1cccc2c1CC1(Cc3c(C)cccc3C1=O)C2=O	> 100	> 100	> 100	> 100		> 100	> 100			> 100

Structure (SMILES)	TGI (A549 NSCLC) [µM]	TGI (OVCAR-4 ovarian) [µM]	TGI (CAKI-1 renal) [µM]	TGI (MALME-3M melanoma) [µM]	TGI (SN12C renal) [µM]	TGI (NCI-H460 lung) [µM]	TGI (HS 578T breast) [µM]	TGI (UACC-62 melanoma) [µM]	TGI (BT-549 breast) [µM]	TGI (SW-620 colon) [µM]
COc1ccc(OC)c2c1-c1nnnn1CCC2(C)C		> 100		> 100	> 100	> 100	> 100	> 100	> 100	> 100
CCOc1ccnc2c(OC)c(C)c3nc4ccccc4nc3c12	> 100	> 100	> 100	> 100	> 100	> 100	> 100			> 100
Oc1ccccc1/C=N/N1C(=S)N(c2ccccc2)C(=Nc2ccccc2)C1=Nc1ccccc1	37.7	15.2	29.6	> 54.6	28.2	32.4	37.7	29.3		> 54.1
CCOC1=NC(C(F)(F)F)(C(F)(F)F)N=C(/N=C(/N)N(C)C(C(C)C)P(=O)(OC(C)C)OC(C)C)O1 (stereo unspecified)	> 100		> 100	> 100	> 100	> 100	> 100	> 100	> 100	> 100
[B]C(=O)NC(CC(C)C)C(=O)NC1c2ccsc2C(=O)C1O (stereo unspecified) (tested in a mixture with another compound)	> 100	> 100		> 100	> 100	> 100	> 100	> 100	> 100	> 100
COC(=O)c1cc(OCc2cc(OCc3ccc(Br)cc3)cc(OCc3ccc(Br)cc3)c2)cc(OCc2cc(OCc3ccc(Br)cc3)cc(OCc3ccc(Br)cc3)c2)c1	> 100	> 100	> 100	> 100	> 100	> 100		> 100	> 100	
CN1CCN2CCN(C)CCN(CC1)CC2	> 100	> 100	> 100		> 100	> 100	> 100	> 100	> 100	> 100
ClC1(Cl)C2CCOC21n1cnc2ccccc21 (stereo unspecified)	> 100	> 100	> 100	> 100	> 100		> 100	> 100	> 100	> 100
NCCCCNCCCNC(=O)c1csc(-c2nc(CCN)sc2Cl)n1	> 100			> 100	> 100	> 100	> 100	> 100	> 100	> 100
CC(C)N=C(NC#N)NS(=O)(=O)c1cnccc1NC1CCCCCCC1	> 100	> 100	> 100	> 100	> 100		> 100	> 100	> 100	> 100
CCN(CC)C(=O)N1CN(c2ccccc2)C2(CCN(CCCC3(c4ccc(F)cc4)OCCO3)CC2)C1=O	> 100	> 100	> 100	36.5	32.8		37.4	34.9	28.9	40.4
O=[N+]([O-])c1cc(C2ON=C(c3ccccc3)N2C23CC4CC(CC(C4)C2)C3)ccc1Cl (stereo unspecified)	> 100	> 100	> 100	> 100	> 100	> 100	> 100			
NC(=O)NC(=O)c1cccc(C(=O)NC(N)=O)n1	> 100	> 100	> 100	> 100	> 100	> 100		> 100		> 100
O=C(CCCN1CCC(Nc2ccc(F)cc2)(c2nnnn2C2CCCCC2)CC1)c1ccc(F)cc1	31.6	25.5		> 100	> 100	> 100	46.3	11.2	33.1	> 100
COc1cc(CNC(=O)CCCCCCCCCCSC#N)ccc1O	42.1	57.6	36.8	> 100		38.2	40.9		44.6	36.4
CSc1cc(Cl)c(C)cc1S(=O)(=O)NC(=O)NNc1cnc2ccccc2n1	> 100	> 100	> 100	> 100	> 100	> 100	> 100			> 100
COC1=C2C[C@](OC)(C#CC=CC#CC2O)CC1(C)C (stereo partly specified)	> 100		> 100	> 100	> 100	> 100	> 100	> 100	> 100	> 100
CN1CCN(C(=S)N(C(=O)c2ccc(Cl)cc2)C2CCCCC2)CC1	> 100	> 100		> 100	> 100	> 100	> 100	> 100	> 100	> 100
C[C@@H](Br)[C@@H]1CC[C@H]2c3[nH]c4ccccc4c3CCN2C1	> 100	> 100	52.4	40.3		70.1	33.9	33.5		70.8
O=C1OCC(CN2CCC(n3c(=O)[nH]c4ccccc43)CC2)=C1c1ccccc1	> 100	39.6	51.4	56.6	53.1	21.2	60.4	26.9		> 100
O=C(CN1CCOCC1)c1ccc2c(c1)oc(=O)n2CCN1CCCCC1			> 100	> 100	> 100	> 100	> 100	> 100	> 100	> 100
CSc1nnc2n1-c1ccccc1SCC2	> 100	> 100		> 100	> 100	> 100		> 100		> 100
CN=C(NC#N)NCc1ccccc1	> 100	> 100	> 100	> 100	> 100	> 100				> 100
